{"source": "patent US9079930B2", "about": "“Substituted pyrimidines” (MERCK SHARP & DOHME CORP., priority 2011, dated 2015)", "data": [{"target": "T1, FLAG-tagged full length PHD2 (Homo sapiens, UniProt Q9GZT9)", "T1 construct": "FLAG-tagged full length PHD2 expressed in and purified from baculovirus-infected Sf9 cells; FLAG; made in house; host or cells: baculovirus-infected Sf9 cells", "T1 sequence (Q9GZT9 whole entry)": "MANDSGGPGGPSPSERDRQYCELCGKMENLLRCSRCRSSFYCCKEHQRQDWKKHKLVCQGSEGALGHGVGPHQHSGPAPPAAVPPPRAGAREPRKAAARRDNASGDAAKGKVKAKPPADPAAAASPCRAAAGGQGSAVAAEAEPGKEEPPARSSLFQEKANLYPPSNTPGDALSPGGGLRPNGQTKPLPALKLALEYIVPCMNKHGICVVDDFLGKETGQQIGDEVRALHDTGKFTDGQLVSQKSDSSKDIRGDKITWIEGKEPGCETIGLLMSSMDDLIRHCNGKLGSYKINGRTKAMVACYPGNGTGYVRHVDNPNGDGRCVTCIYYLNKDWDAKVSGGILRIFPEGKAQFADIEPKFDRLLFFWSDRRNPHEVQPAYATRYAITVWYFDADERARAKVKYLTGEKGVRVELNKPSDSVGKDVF", "experiment": "PHD2 inhibition assay (time resolved fluorescence, HIF-1α peptide hydroxylation, VHL complex detection)", "type": "biochemical", "conditions": "0.2 μM 2-oxoglutarate, 0.5 μM HIF-1α peptide", "description": "To each well of a 96-well plate was added 1 μL of test compound in DMSO and 20 μl of assay buffer (50 mM Tris pH 7.4/0.01% Tween-20/0.1 mg/ml bovine serum albumin/10 μM ferrous sulfate/i mM sodium ascorbate/20 μg/ml catalase) containing 0.15 μg/ml FLAG-tagged full length PHD2 expressed in and purified from baculovirus-infected Sf9 cells. After a 30 min preincubation at room temperature, the enzymatic reactions were initiated by the addition of 4 μL of substrates (final concentrations of 0.2 μM 2-oxoglutarate and 0.5 μM HIF-1α peptide biotinyl-DLDLEMLAPYIPMDDDFQL (SEQ ID NO: 1)). After 2 hr at room temperature, the reactions were terminated and signals were developed by the addition of a 25 μL quench/detection mix to a final concentration of 1 mM ortho-phenanthroline, 0.1 mM EDTA, 0.5 nM anti-(His)6 LANCE reagent (Perkin-Elmer Life Sciences), 100 nM AF647-labeled streptavidin (Invitrogen), and 2 μg/ml (His)6-VHL complex (S. Tan (2001) Protein Expr. Purif. 21, 224-234). The ratio of time resolved fluorescence signals at 665 and 620 nm was determined, and percent inhibition was calculated relative to an uninhibited control sample run in parallel.", "units": {"IC50": "nM"}, "values": [{"smiles": "O=C(NC(c1ccccc1)c1ccc(P(=O)(O)O)cc1)c1cnc(-c2ccccn2)nc1O", "note": "(stereo not shown) [Compound 2-2, 4-((4-hydroxy-2-(pyridin-2-yl)pyrimidine-5-carboxamido)(phenyl)methyl)phenyl phosphonic acid]", "IC50": "0.5 to 20"}, {"smiles": "CP(=O)(O)c1ccc([C@@H](NC(=O)c2cnc(-n3cccn3)nc2O)C2CCCCC2)cc1", "note": "[Compound 27-1, 4-((S)-cyclohexyl(4-hydroxy-2-(1H-pyrazol-1-yl)pyrimidine-5-carboxamido)methyl)phenyl(methyl)phosphinic acid]", "IC50": "0.5 to 20"}, {"smiles": "CP(=O)(O)c1ccc(C(NC(=O)c2cnc(-n3cccn3)nc2O)c2ccc(F)cc2)cc1", "note": "(stereo not shown) [Compound 17-1, 4-((4-fluorophenyl)(4-hydroxy-2-(1H-pyrazol-1-yl)pyrimidine-5-carboxamido)methyl)phenyl(methyl)phosphinic acid]", "IC50": "0.5 to 20"}, {"smiles": "C[C@@H](NC(=O)c1cnc(-n2cccn2)nc1O)c1ccc(P(=O)(O)O)cc1", "note": "[Compound 15-2, (R)-4-(1-(4-hydroxy-2-(1H-pyrazol-1-yl)pyrimidine-5-carboxamido)ethyl)phenyl phosphonic acid]", "IC50": "0.5 to 20"}, {"smiles": "CCOP(=O)(OCC)c1ccc(C(NC(=O)c2cnc(-n3cccn3)nc2O)c2ccccc2)cc1", "note": "(stereo not shown) [Compound 8-1, Diethyl 4-((4-hydroxy-2-(1H-pyrazol-1-yl)pyrimidine-5-carboxamido)(phenyl)methyl)phenylphosphonate]", "IC50": "0.5 to 20"}, {"smiles": "CP(=O)(O)c1ccc(C(NC(=O)c2cnc(-c3ccccn3)nc2O)c2ccccc2)cc1", "note": "(stereo not shown) [Compound 2-5, 4-((4-hydroxy-2-(pyridin-2-yl)pyrimidine-5-carboxamido)(phenyl)methyl)phenyl(methyl)phosphinic acid]", "IC50": "0.5 to 20"}, {"smiles": "CP(=O)(O)c1ccc([C@@H](NC(=O)c2cnc(-n3cc(F)cn3)nc2O)c2ccc(F)cc2)cc1", "note": "[Compound 28-1, 4-((S)-(2-(4-fluoro-1H-pyrazol-1-yl)-4-hydroxypyrimidine-5-carboxamido)(4-fluorophenyl)methyl)phenyl(methyl)phosphinic acid]", "IC50": "100 to 10000"}, {"smiles": "CC(C)OP(=O)(OC(C)C)C(NC(=O)c1cnc(-c2ccccn2)nc1O)c1ccccc1", "note": "(stereo not shown) [Compound 6-1, Diisopropyl (4-hydroxy-2-(pyridin-2-yl)pyrimidine-5-carboxamido)(phenyl)methyl phosphonate]", "IC50": "0.5 to 20"}, {"smiles": "CC(NC(=O)c1cnc(-n2cccn2)nc1O)c1ccc(P(=O)(O)O)cc1", "note": "(stereo not shown) [Compound 15-1, 4-(1-(4-hydroxy-2-(1H-pyrazol-1-yl)pyrimidine-5-carboxamido)ethyl)phenylphosphonic acid]", "IC50": "20 to 100"}, {"smiles": "CCOP(=O)(OCC)C(NC(=O)c1cnc(-n2cccn2)nc1O)c1ccc(OC)cc1", "note": "(stereo not shown) [Compound 10-1, Diethyl (4-hydroxy-2-(1H-pyrazol-1-yl)pyrimidine-5-carboxamido)(4-methoxyphenyl)methylphosphonate]", "IC50": "0.5 to 20"}, {"smiles": "COc1ccc(C(NC(=O)c2cnc(-c3cccnn3)nc2O)c2ccc(CP(=O)(O)O)cc2)cc1", "note": "(stereo not shown) [Compound 32-1, 4-((4-hydroxy-2-(pyridazin-3-yl)pyrimidine-5-carboxamido)(4-methoxyphenyl)methyl)benzylphosphonic acid]", "IC50": "0.5 to 20"}, {"smiles": "C[C@@H](NC(=O)c1cnc(-c2ccccn2)nc1O)c1ccc(P(=O)(O)O)cc1", "note": "[Compound 3-5, (R)-4-(1-(4-hydroxy-2-(pyridin-2-yl)pyrimidine-5-carboxamido)ethyl)phenylphosphonic acid]", "IC50": "100 to 10000"}, {"smiles": "CP(=O)(O)c1ccc([C@H](NC(=O)c2cnc(-n3cccn3)nc2O)c2ccc(F)cc2F)cc1", "note": "[Compound 21-1, 4-((S)-(2,4-difluorophenyl)(4-hydroxy-2-(1H-pyrazol-1-yl)pyrimidine-5-carboxamido)methyl)phenyl(methyl)phosphinic acid]", "IC50": "0.5 to 20"}, {"smiles": "CP(=O)(O)c1ccc([C@@H](NC(=O)c2cnc(-n3cccn3)nc2O)c2ccc(F)cc2F)cc1", "note": "[Compound 20-1, 4-((R)-(2,4-difluorophenyl)(4-hydroxy-2-(1H-pyrazol-1-yl)pyrimidine-5-carboxamido)methyl)phenyl(methyl)phosphinic acid]", "IC50": "0.5 to 20"}, {"smiles": "CCOC(=O)CNP(=O)(NCC(=O)OCC)c1ccc(C(NC(=O)c2cnc(-c3ccccn3)nc2O)c2ccc(OC)cc2)cc1", "note": "(stereo not shown) [Compound 1-1-5, diethyl 2,2′-((4-((4-hydroxy-2-(pyridin-2-yl)pyrimidine-5-carboxamido)(4-methoxyphenyl)methyl)phenyl)phosphoryl)bis(azanediyl)diacetate]", "IC50": "20 to 100"}, {"smiles": "CP(=O)(O)c1ccc([C@H](NC(=O)c2cnc(-n3cccn3)nc2O)c2ccccc2)cc1", "note": "[Compound 23-1, 4-((R)-(4-hydroxy-2-(1H-pyrazol-1-yl)pyrimidine-5-carboxamido)(phenyl)methyl)phenyl(methyl)phosphinic acid]", "IC50": "0.5 to 20"}]}]}
